Test results as given in patent US11926619B2, “Certain pladienolide compounds and methods of use” (EISAI R&D MANAGEMENT CO., LTD., priority 2018, dated 2024).

Legend:
[1] = tested on: WiDr cells (colon cancer cells; wildtype SF3B1); assay: Cell viability assay (CellTiter-Glo, 72 hr), WiDr cells; format: cell-based; conditions: Homo sapiens; WiDr cells (wildtype SF3B1); read-out: WiDr GI50
Protocol: (§1) Cells (WiDr and Panc05.04 obtained from ATCC) were seeded in 96-well plates, with 2000 cells/100 μL/well, and incubated overnight. Spent media was removed, and fresh media containing 9 different concentrations of compound (100 μL/well) were added, with DMSO concentration from compound stock solution adjusted to be 0.1%. Each compound treatment was done in duplicate or triplicate at each concentration.
(§2) Another plate with cells seeded was dedicated as a time zero (Tz) plate, to which was added 0.1% DMSO in media (100 μL/well) followed by CellTiter-Glo® reagent (Promega Corporation, Madison, Wisconsin) (50 μL/well) for ATP measurement as a surrogate of cell viability. Average value from measurement of multiple wells of this plate is used as Tz. Compound-treated plates were incubated for 72 hr at 37° C. Then, CellTiter-Glo® reagent (50 μL/well) was added and ATP was measured. Average value from measurement of the duplicate or triplicate compound-treated wells is used as Ti, and seeded plates with medium having 0.1% DMSO without compound is used as control growth (C).
(§3) Percentage growth inhibition/Percentage viability was calculated as:
(§4) [(Ti−Tz)/(C−Tz)]×100 for concentrations for which Ti>/=Tz
(§5) [(Ti−Tz)/Tz]×100 for concentrations for which Ti<Tz.
(§6) *time zero (Tz), control growth (C), and test growth in the presence of compound (Ti) Percentage growth inhibition/Percentage viability are plotted versus compound concentration to determine Emax.
Emax refers to the maximum achievable response to a compound in a tested dose range, with a negative value indicating cellular lethality. A larger negative Emax value indicates greater cellular lethality for a particular compound. […]

[2] = tested on: WiDr-R cells (colon cancer cells; chemically-induced SF3B1 R1074H mutant); assay: Cell viability assay (CellTiter-Glo, 72 hr), resistant WiDr-R cells (counter-screen); format: cell-based; conditions: WiDr-R cells (SF3B1 R1074H mutation, resistant); read-out: WiDr-R GI50
Protocol: as §1, §2, §3, §4, §5, §6
(§7) Emax refers to the maximum achievable response to a compound in a tested dose range, with a negative value indicating cellular lethality. A larger negative Emax value indicates greater cellular lethality for a particular compound.
The counter-screening of compounds in this viability assay with a “resistant” WiDr-R cell line may indicate whether these compounds have off-target effect(s).

[3] = tested on: Panc 05.04 cells (pancreatic cancer cells; Q699H and K700E mutations in SF3B1); assay: Cell viability assay (CellTiter-Glo, 72 hr), Panc 05.04 cells; format: cell-based; conditions: Panc 05.04 cells (mutant SF3B1); for GI50: read-out: Panc 05.04 (mt SF3B1 cells), GI50; for Emax: maximum achievable response in tested dose range, negative value = cellular lethality, read-out: Panc 05.04 (mt SF3B1 cells) Emax (%)
Protocol: as §1, §2, §3, §4, §5, §6, §7

SF3b complexes = target: T1, SF3b complexes (Homo sapiens, UniProt O75533+Q7RTV0); assay: Scintillation proximity assay (SPA) with [3H]-labelled pladienolide probe; format: binding; conditions: wt SF3B1, read-out: SPA (wt SF3B1 cells) IC50
T1 construct: endogenous in cells
Protocol: Batch immobilization of anti-SF3B1 antibody (MBL) to anti-mouse PVT SPA scintillation beads (PerkinElmer) was prepared as follows: for every 2.5 mg of nuclear extracts, 5 μg anti-SF3B1 antibody and 1.5 mg of beads were mixed in 150 μl PBS. The antibody-bead mixture was incubated for 30 min at RT and centrifuged at 18,000 g for 5 min. 150 μl PBS was used to resuspend every 1.5 mg antibody-bead mixture. The beads were suspended and added to the prepared nuclear extracts. The slurry was incubated for 2 h at 4° C. with gentle mixing. The beads were then collected by centrifuging at 18,000 g for 5 min, and washed twice with PBS+0.1% Triton X-100. After a final centrifugation step, every 1.5 mg of beads was suspended with 150 μl of PBS. The SF3b complexes were tested for [^3H]-labelled pladienolide probe binding ([^3H]-PB), synthesized as previously described (Kotake et al., 2007). 100 μL binding reactions were prepared with 50 μl bead slurry and by adding varying concentrations of PB or PB—OH, and after 30 min pre-incubation, 2.5 nM [^3H]—PB was added. The mixture was incubated for 30 min, and luminescence signals were read using a MicroBeta2 Plate Counter (PerkinElmer). Prism 6 (Graphpad) was used for non-linear regression curve fitting of the data.

SMILES | GI50 [1] [nM] | GI50 [2] [nM] | GI50 [3] [nM] | Emax [3] [%] | IC50 (SF3b complexes) [nM]
CC(=O)O[C@H]1/C=C/[C@H](C)[C@@H](/C(C)=C/C=C/[C@@H](C)COC(=O)N2CCOCC2)OC(=O)C[C@H](O)CC[C@@]1(C)O | 91.3 | > 10000 | 15.4 | – | –
C/C(=C\C=C\[C@@H](C)COC(=O)N1CCCC1(C)C)[C@H]1OC(=O)C[C@H](O)CC[C@@](C)(O)[C@@H](OC(=O)N2CCN(C3CCCCCC3)CC2)/C=C/[C@@H]1C | 28.9 | > 1000 | 10.4 | -93 | –
C/C(=C\C=C\[C@@H](C)COC(=O)N1CC[C@@H](C)C1)[C@H]1OC(=O)C[C@H](O)CC[C@@](C)(O)[C@@H](OC(=O)N2CCN(C3CCCCCC3)CC2)/C=C/[C@@H]1C | 3.93 | > 1000 | 1.2 | -86.6 | –
C/C(=C\C=C\[C@@H](C)COC(=O)N1CCC[C@H]1CF)[C@H]1OC(=O)C[C@H](O)CC[C@H](C)[C@@H](OC(=O)N2CCN(C3CCCCCC3)CC2)/C=C/[C@@H]1C | 5.05 | > 1000 | 6.76 | -77.7 | –
C/C(=C\C=C\C(C)c1ccnc(N(C)C)n1)[C@H]1OC(=O)C[C@H](O)CC[C@@](C)(O)[C@@H](OC(=O)N2CCN(C)CC2)/C=C/[C@@H]1C (stereo partly shown) | 252 | > 1000 | 1290 | 6.97 | –
C/C(=C\C=C\[C@@H](C)COC(=O)N1CCCC1)[C@H]1OC(=O)C[C@@H](O)CC[C@@](C)(O)[C@@H](OC(=O)N2CCN(C)CC2)/C=C/[C@@H]1C | 25 | > 1000 | 12.3 | -95.4 | –
C/C(=C\C=C\[C@@H](C)COC(=O)N1CC[C@@H](F)C1)[C@H]1OC(=O)C[C@H](O)CC[C@@](C)(O)[C@@H](OC(=O)N2CCN(C3CCCCCC3)CC2)/C=C/[C@@H]1C | 7.64 | > 1000 | 22.5 | -92.2 | –
CC(=O)O[C@H]1/C=C/[C@H](C)[C@@H](/C(C)=C/C=C/C(C)Cc2ccccn2)OC(=O)C[C@H](O)CC[C@@]1(C)O (stereo partly shown) | 911 | > 10000 | 1670 | 20.3 | –
COC(=O)OC[C@H](C)/C=C/C=C(\C)[C@H]1OC(=O)C[C@H](O)CC[C@@](C)(O)[C@@H](OC(=O)N2CCN(C)CC2)/C=C/[C@@H]1C | 14.7 | > 1000 | 5.11 | -95.9 | –
CC(=O)O[C@H]1/C=C/[C@H](C)[C@@H](/C(C)=C/C=C/Cc2cccnc2)OC(=O)C[C@H](O)CC[C@@]1(C)O | 538 | > 10000 | > 6400 | 84.5 | –
C/C(=C\C=C\C(C)c1ccnc(N2CCCC2)n1)[C@H]1OC(=O)C[C@H](O)CC[C@@](C)(O)[C@@H](OC(=O)N2CCN(C3CCCCCC3)CC2)/C=C/[C@@H]1C (stereo partly shown) | 23 | 4310 | 147 | -96.6 | –
C/C(=C\C=C\[C@@H](C)c1ccccn1)[C@H]1OC(=O)C[C@H](O)CC[C@@](C)(O)[C@@H](OC(=O)N2CC3CCC(C2)N3C2CCCCCC2)/C=C/[C@@H]1C | 52 | > 1000 | 65 | -95.7 | –
C/C(=C\C=C\[C@@H](C)COC(=O)N1[C@H](C)CC[C@H]1C)[C@H]1OC(=O)C[C@H](O)CC[C@@](C)(O)[C@@H](OC(=O)N2CCN(C3CCCCCC3)CC2)/C=C/[C@@H]1C | 2.39 | 14.8 | 4.52 | -68.9 | –
C/C(=C\C=C\[C@@H](C)COC(=O)N1CCCC1)[C@H]1OC(=O)C[C@H](OC(=O)N2CCCC2)CC[C@@](C)(O)[C@@H](OC(=O)N2CCN(C3CCCCCC3)CC2)/C=C/[C@@H]1C | 77.3 | > 1000 | 80.1 | – | –
CC[C@H](O)[C@@H](C)[C@H]1O[C@@H]1C[C@H](C)/C=C/C=C(\C)[C@H]1OC(=O)C[C@H](O)CC[C@@](C)(OC)[C@@H](OC(=O)N2CCNCC2)/C=C/[C@@H]1C | – | – | – | – | 0.99
